Source: US7217688B2, “Methods and compositions for derepression of IAP-inhibited caspase” (The Burnham Institute, priority 2005, dated 2007)
Square brackets hold non-standard residues; d marks the D form. Side chains are listed from the residue outwards. Peptide text beside a SMILES is read from it. * marks the point of attachment. X1 = CCN(CC)c1ccc2c(-c3ccc(S(=O)(=O)*)cc3S(=O)(=O)O)c3ccc(=[N+](CC)CC)cc-3oc2c1; d2Nal = N[C@H](Cc1ccc2ccccc2c1)C(=O)O; Ahx = NCCCCCC(=O)O

What was measured:
[1] = target: T1, XIAP-inhibited caspase-3 (Homo sapiens, UniProt P98170); assay: caspase derepression assay (XIAP-inhibited caspase-3, Ac-DEVD-AFC hydrolysis); format: biochemical; conditions: for activity in the derepression assay using full length XIAP: active / inactive
T1 construct: in the derepression assay using full length XIAP; made in house; host or cells: bacteria
T1 sequence (P98170 whole entry): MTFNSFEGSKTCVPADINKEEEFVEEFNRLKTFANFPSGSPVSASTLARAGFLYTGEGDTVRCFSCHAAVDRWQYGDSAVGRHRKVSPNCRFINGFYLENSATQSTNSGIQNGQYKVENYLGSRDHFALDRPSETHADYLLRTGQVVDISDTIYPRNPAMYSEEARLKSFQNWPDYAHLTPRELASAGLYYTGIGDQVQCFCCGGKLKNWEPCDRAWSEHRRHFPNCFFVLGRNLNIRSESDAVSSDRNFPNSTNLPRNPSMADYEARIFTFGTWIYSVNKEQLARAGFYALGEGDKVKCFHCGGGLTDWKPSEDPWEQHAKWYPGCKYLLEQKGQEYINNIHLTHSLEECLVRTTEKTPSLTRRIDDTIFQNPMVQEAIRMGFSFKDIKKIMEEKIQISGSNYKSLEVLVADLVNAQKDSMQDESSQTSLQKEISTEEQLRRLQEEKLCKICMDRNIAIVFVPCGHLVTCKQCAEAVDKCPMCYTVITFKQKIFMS
Protocol: (§1) Caspase activity was assayed by release of 7-amino-4-trifluoromethyl-coumarin (AFC) from Ac-DEVD-AFC synthetic peptide using a Molecular Devices Spectromax 340 (see Zhou et al., J. Biol. Chem. 272:7797–7800 (1997)). […] The ratio of Vmax for hydrolysis of Ac-DEVD-AFC in the presence and absence of the candidate mixture was calculated and used to identify those that contain an agent that derepresses an IAP-inhibited caspase.
(§2) Screening of each mixture from the DCR390, TPI 1239 or TPI 1328 library, respectively, using the above described assay was carried out as follows. Each mixture was aliquoted in a 25 microliter volume and in duplicate to a well of a 96 well microtiter plate. […] Fluorescence of liberated AFC was immediately detected from each well for 30 minutes at 30 second intervals. The Vmax for hydrolysis of AC-DEVD-AFC from each well was measured using the softmax software package. Results of the screen for the DCR390 library are shown in Table I. Sets of mixtures having the same position fixed with different respective amino acids are arranged in 6 sections identified with the position number. […] The mixture in each section are arranged in descending order according to apparent velocity in the second column.
Briefly, recombinant proteins were produced in bacteria and purified as described, for example, in Deveraux et al., Nature 388:300–304(1997). […] Generation of fluorogenic AFC (7-amino-4-trifluoromethyl coumarin) product was measured with a spectrofluorometric plate reader in kinetic mode for 30 minutes at 37° C. using excitation and emission wavelengths of 405 nm and 510 nm, respectively. […] Control reactions lacked XIAP, and all assays were conducted in the linear range of substrate hydrolysis to avoid substrate depletion artifacts.

[2] = target: T2, caspase-3 (Homo sapiens, UniProt P42574); assay: caspase-3 activity without XIAP (control arm of derepression assay); format: biochemical; conditions: TPI 1239 library; ratio, no XIAP
T2 construct: made in house; host or cells: bacteria
T2 sequence (P42574 29-175 limits assumed): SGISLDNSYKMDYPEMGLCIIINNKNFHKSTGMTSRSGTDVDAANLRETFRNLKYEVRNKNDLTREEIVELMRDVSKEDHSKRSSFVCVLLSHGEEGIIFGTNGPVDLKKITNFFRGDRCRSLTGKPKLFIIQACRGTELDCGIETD
T2 sequence (P42574 176-277 limits assumed): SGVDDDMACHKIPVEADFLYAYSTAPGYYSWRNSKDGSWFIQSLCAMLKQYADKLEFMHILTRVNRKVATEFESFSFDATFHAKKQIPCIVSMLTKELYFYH
Protocol: as §1, §2

[3] = tested on: Jurkat leukemia cells; assay: Jurkat cell death (Annexin V / propidium iodide flow cytometry); format: cell-based
Protocol: The following assay was used to test the ability of individual compounds from the TPI 1396 and TPI 1391 libraries to induce apoptosis of cultured tumor cell lines. Each of the compounds listed in Table IX was individually added to Jurkat leukemia cells (6.25×10^5 cells/mL) in RPMI containing 2.5% FBS at various concentrations for 20 hours. After incubation, cells were washed and stained with FITC-conjugated Annexin V antibody and propidium iodide (Biovision; Mountain View, Calif.). Cells were incubated for 20 minutes at room temperature in the dark and fluorescence was measured by flow cytometry (FACScan, Immunocytometry system; Becton-Dickinson; San Jose, Calif.). Cells staining positive for Annexin V were deemed non-viable.

[4] = tested on: tumor tissue; assay: in vivo caspase activation in tumors (immunoblot, immunohistochemistry); design: species or system Balb/c mice; conditions: 30 mg/kg i.p. for 3 successive days
[5] = tested on: NCI panel of 60 tumor cell lines; assay: NCI panel of 60 tumor cell lines, protein-based colorimetric assay; design: species or system human; conditions: 48 hours
Protocol: Selected polyphenylurea compounds were tested on the National Cancer Institute (NCI) panel of 60 tumor cell lines (see FIG. 28a and FIG. 29).

[6] = mouse, in vivo
Protocol: Selected polyphenylurea compounds were tested for anti-tumor activity in vivo, using human tumor xenografts grown in immunocompromised mice. First, it was determined what doses of polyphenylurea compounds were tolerated by mice. […] For tumor xenograft studies, PPC1 prostate cancer cells (2.5 million) were injected subcutaneously into the flanks of 8 male Balb/C nu−/nu− mice. […] Tumor growth was monitored at least twice weekly by external calipers (see FIG. 32b). At 24 days after compound injections, mice were sacrificed and tumors were excised and weighed (see FIG. 32b, inset).
Sera were assayed for BUN, bilirubin, ALT and AST.

[7] = stability in human serum; format: in vitro ADME; conditions: expected
[8] = target: XIAP binding to the SMAC peptide (Homo sapiens, UniProt P98170); assay: SMAC competition / SMAC binding assay (biotinylated SMAC 7-mer, GST-XIAP)
Chain of XIAP binding to the SMAC peptide (P98170 whole entry): as the sequence (P98170 whole entry) above
Protocol: Peptide compounds containing unnatural amino acids in the 792 series, 792-33 and 792-35 (see FIG. 12 and 20 and Example XI), and an active compound in the TPI 1332 series, TPI 1332-69, were tested for binding activity in the SMAC binding assay as described above in Example X. For this assay, biotinylated SMAC 7-mer peptide (50 ng) was bound to 96 well plates coated with NeutrAvidin (Pierce, Rockford, Ill.) at 1 mg/ml in 100 μl per well of 50 mM HEPES pH 7.4, 100 mM NaCl, 1 mM EDTA, 10% sucrose, 0.1% CHAPS, 10 mM DTT.

[9] = tested on: tumor cells with antigen-specific T cells; assay: CTL-mediated lysis (51Cr release); format: cell-based; conditions: 10 μM, 4 hours
Protocol: After 4 hours, ^51Cr release was measured. Data shown in FIG. 39 are expressed as a percentage of total release induced by detergent lysis, and data represent mean±standard deviation of duplicate determinations.

[10] = tested on: PPC1 prostate cancer cells; assay: PPC1 tumor xenograft; format: in vivo, Balb/C nu-/nu- mice; conditions: 30 mg/kg i.p. for 2 or 3 days
Excerpt: Similar data was obtained using TPI 1396-22 (see FIG. 33a and 33b). […] In FIG. 33b, the mice were sacrificed at day 19 and the tumors excised and weighed.

[11] = tested on: PPC1, ALVA31, DU145 and HeLa cells; assay: sensitization to TRAIL-induced apoptosis; format: cell-based; conditions: 1 µM
Protocol: Similar tests of the effects of polyphenyl urea compounds on apoptosis induction by the biological agent TRAIL, an apoptosis inducing member of the Tumor Necrosis Factor (TNF) family were also performed.

[12] = tested on: HCT-116 colon cancer cells; assay: HCT-116 tumor xenograft; format: in vivo, Balb/C nu-/nu- mice; conditions: 30 mg/kg i.p. on days 6, 7 and 8
Protocol: Additional experiments were performed using a different tumor xenograft model. HCT-116 colon cancer cells (2.5 million) were injected subcutaneously in the flanks of female Balb/C nu−/nu− mice. […] Tumor volume was measured by external calipers at least twice weekly for 19 days (see FIG. 32c). On day 19, the mice were sacrificed and the tumors were excised and weighed.

[13] = tested on: U937 leukemia cells over-expressing XIAP; assay: U937-Neo versus U937-XIAP cell death (Annexin V); format: cell-based; conditions: 5 or 8 μM, 20 hours
Protocol: After incubation, cells were washed, stained with FITC-conjugated Annexin V antibody and propidium iodide, and fluorescence measured by flow cytometry as described in Example XI.
Equal amounts of protein were subjected to SDS-PAGE (4–20% gradient gels from ISC BioExpress, Kaysville, Utah.), followed by transfer to nitrocellulose membranes. […] Secondary antibodies consisted of horseradish peroxidase (HRP)-conjugated goat anti-mouse IgG (Bio-Rad, Hercules, Calif.). Detection was performed by the enhanced chemiluminescence (ECL) method. […] Lysates were prepared from the cells, normalized for total protein content and analyzed by SDS-PAGE immunoblotting using antibodies specific for XIAP, caspase-3, and β-actin.

[14] = tested on: Du145 prostate cancer cells; assay: sensitization to anticancer drugs (MTT assay); format: cell-based; conditions: 10 μM, 48 hours
Protocol: The percentage of viable cells relative to control was determined using a MTT (3-(4,5-dimethylthiazolyl-2)-2,5-diphenyltetrazolium bromide) assay which is commercially available (Sigma). […] Similar results were obtained for PPC1 (FIG. 31b) and PC3 (FIG. 31c) prostate cancer cells treated with VP16, DOX, or TAXOL, and for H460 (FIG. 31d) lung cancer cells treated with VP16 or DOX.

[15] = tested on: Jurkat cells; assay: caspase-3 and caspase-7 activity in whole Jurkat cells; format: cell-based; conditions: 8 μM, 20 hours
[16] = tested on: HeLa cells; assay: apoptosis of transfected HeLa cells (Annexin V); format: cell-based; conditions: 5 μM, 20 hours
Protocol: In addition to transfecting the cells with full-length XIAP, analogous assays were performed with HeLa cells transfected with plasmids over-expressing various XIAP mutants. […] The mutant was produced by site-directed mutagenesis to modify positions 148, 219, 223, 314 and 323 to contain alanine. HeLa cells were also transiently transfected with plasmids encoding Bcl-XL, an anti-apoptotic protein that operates upstream of caspases to suppress Cytochrome C release from mitochondria. HeLa cells (2.5×10^5) were seeded onto six well plates in 2 mL DMEM H21 with 5% FBS. After 24 hrs, cells were transfected (Gene Porter) with plasmids. […] Both floating and adherent cells were then recovered from cultures, washed, and apoptosis was determined by Annexin V staining using flow cytometry.
Bcl-XL over-expression did afford resistance to traditional anticancer drugs such as etoposide and CrmA (a caspase-8 inhibitor), and protected cells from apoptosis induced by TRAIL, confirming that these anti-apoptotic proteins were functional in these experiments.

[17] = tested on: mouse embryo fibroblasts (MEFs), human prostate epithelial cells, peripheral blood lymphocytes (PBLs); assay: normal cell viability (annexin-V, 2 days); format: cell-based; design: dose or concentration left out as unconfirmed
Protocol: After 2 days, cell viability was assessed by annexin-V staining.

[18] = tested on: normal bone marrow mononuclear cells; assay: normal bone marrow cell toxicity (Annexin V); format: cell-based; conditions: 5 μM, 20 hours
Protocol: After incubation, cells were washed, stained with FITC-conjugated Annexin V antibody and propidium iodide, and fluorescence measured by flow cytometry as described above.

[19] = tested on: PC-3 and LNCaP prostate cancer cell lines; assay: clonogenic survival (colony formation) assay; format: cell-based; conditions: 10 μM
Protocol: In addition to short-term cytotoxicity assays, selected polyphenylurea compounds were tested for effects on clonogenic survival of cancer cells in colony formation assays, which can be considered a more stringent test of anticancer activity.

[20] = target: His-BIR2 of XIAP; assay: rhodamine fluorescence polarization competitive binding assay; conditions: titrated with TPI 1396-11; labeled compound 2.4 μM, His-BIR2 79 μM; read-out: IC50 of the labeled candidate compound
Protocol: In a second assay, competitive binding of candidate derepressors of IAP inhibited caspase was measured by a fluorescence polarization procedure. Fixed quantities of rhodamine-labeled candidate compound and IAP fragment were titrated against varying concentrations of a known IAP-binding compound. […] Polarization (millipolars or mP) was plotted against log concentration (log []) of the known IAP-binding compound. A plot of mP versus log concentration of the IAP-binding compound was then used to calculate the binding constant for the candidate compound-the IAP fragment pair.
Plates were incubated for one hour at room temperature, after which polarization of rhodamine was read in an LJL Analyst HT® multimode reader with excitation at 530 nm and emission at 580 nm.

## CC[C@H](C)[C@H](NC(=O)[C@@H]1CCCN1C(=O)[C@@H](NC(=O)[C@H](C)N)C(C)C)C(=O)N[C@@H](C)C(=O)N[C@@H](CCC(N)=O)C(=O)N[C@@H](CCCCN)C(N)=O [SMAC, H-Ala-Val-Pro-Ile-Ala-Gln-Lys-NH2, reference compound] (H-AVPIAQK-NH2)
[1]; TPI 1239 library, ratio in the presence of XIAP
  Vmax(mis + casp3 + XIAP) Vmax(casp3 + XIAP): 3.8 ± 1.7
[2]
  Vmax(mix + casp3) Vmax(casp3): 0.8 ± 0.0

## CN(CCCCC(CNC(=O)Nc1ccccc1)N(CC1CCCN1CCCCC1CCCCC1)C(=O)Nc1ccccc1)C(=O)Nc1ccccc1 (stereo not shown) [TPI 1396-12]
[3]; 1 µM
  % nonviable cells: 15%
[3]; 5 µM
  % nonviable cells: 95%
[3]; 10 μM
  % nonviable cells: 89%
[3]; 25 µM
  % nonviable cells: 89%
[3]; 50 µM
  % nonviable cells: 85%
[1]; Table X, R2 = L-Proline
  Activity (relative caspase-3 activity, ratio of Vmax with compound to Vmax of caspase-3 and XIAP controls): 2.7
[1]
  activity in the derepression assay using full length XIAP: active
[4]
  caspase activation in tumors in vivo: induce caspase activation in tumors in vivo
  tumor proliferation (surrogate marker PCNA): no effect on tumor proliferation
[5]
  average LD50 for the 60 cell lines: 7.6 ± 12 µM
  median LD50 for the 60 cell lines: 6 µM
[6]
  maximum tolerated dose: 200 to 400 mg/kg
[7]
  stable in human serum: greater than 48 hours

## COc1ccc(CCN2CCC[C@@H]2CN(C(=O)Nc2ccccc2)[C@@H](CNC(=O)Nc2ccccc2)CC2CCCCC2)cc1 [TPI 1396-34]
[8]
  competition with XIAP binding to the SMAC peptide: does not compete
[9]
  effect on CTL-mediated lysis: sensitizes tumor targets to CTL-mediated lysis
[3]; 10 μM
  time to half-maximal killing: approximately 12 hours
  time to maximum killing: about 24 hours
[3]; 20 hours
  apoptosis with 100 μM zVAD-fmk: suppressible
[1]
  activity in the derepression assay using full length XIAP: active
[10]
  tumor growth / tumor size: reduced tumor size
[11]
  effect on TRAIL-induced apoptosis: sensitized
[12]
  tumor size: tumor size was reduced
[13]
  effect of XIAP over-expression on apoptosis induction: over-expression of XIAP rendered U937 cells resistant
[14]
  effect on cytotoxicity of VP16, DOX and TAXOL: significantly increased dose-dependent cytotoxicity
[15]
  caspase activation: induced caspase activation
[16]
  apoptosis in HeLa cells over-expressing Bcl-XL: not blocked
  apoptosis in HeLa cells over-expressing full-length XIAP: protected
  apoptosis in HeLa cells transfected with a control vector: induced apoptosis
[17]
  increase of percentage cell death above background: less than one-fold
[18]
  toxicity to normal bone marrow cells: little toxicity
[19]
  colony formation: < 5 % of control

## CCN(CC)c1ccc2c(-c3ccc(S(=O)(=O)NCCCCCC(=O)NCCCC[C@H](NC(=O)[C@@H](Cc4ccc5ccccc5c4)NC(=O)[C@H](Cc4c[nH]c5ccccc45)NC(=O)[C@H](Cc4c[nH]c5ccccc45)NC(=O)[C@H](C)N)C(N)=O)cc3S(=O)(=O)O)c3ccc(=[N+](CC)CC)cc-3oc2c1 [TPI 1566-11] (H-AWW[d2Nal]K([Ahx-X1])-NH2)
[20]
  IC50: 10 µM
